Measured values from ChEMBL document CHEMBL5532636 (Eur J Med Chem, 2023).

Tested on: SARS-CoV-2
Assay: Antiviral activity against SARS-CoV-2 Omicron BA.5 variant infected in African green monkey Vero E6 cells assessed as inhibition in viral replication at 25 ug/ml preincubated with cell culture for 1 hr and further infected with virus for 1 hr followed by removal of virus particles and subsequent replacement of medium containing compound measured for 72 hrs post-infection by RT-PCR analysis relative to control
Format: functional
Details: Severe acute respiratory syndrome coronavirus 2, Omicron BA.5, Vero C1008, time 73 hrs

Question: O=c1cc(-c2ccccc2)oc2cc(O)c(O)c(O)c12 [BAICALEIN] was tested. Which inhibition at 25 µg/mL did it give?
Answer: The inhibition at 25 µg/mL was greater than 50%.
